In article PMC10705561 (bioRxiv, 2023):

Columns and labels:
[1] = test system: rNsp5-S144M recombinant SARS-CoV-2; format: cell-based
[2] = test system: rNsp5-L50F/E166V recombinant SARS-CoV-2; format: cell-based

## CC(C)(C)[C@H](NC(=O)C(F)(F)F)C(=O)N1C[C@H]2[C@@H]([C@H]1C(=O)N[C@H](C#N)C[C@@H]1CCNC1=O)C2(C)C [nirmatrelvir]
[1]
  EC50 fold-increase compared to WT: 12.5
[2]
  EC50 fold-increase compared to WT: 24.2
